Laboratory results as given in ChEMBL document CHEMBL1201862, “PubChem BioAssay data set” (2004).
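48-hour exposure; five concentrations; linearly interpolated endpoints. GI50 = concentration required for 50% inhibition of growth.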 The source made the active and inactive calls. Rule as the data show it: active = GI50 up to about 1.1 µM and inactive = higher.

Columns and labels:
Assay in all cases: NCI tumour cell line growth inhibition, 48 h
SR = test system: SR
UACC-62 = test system: UACC-62
OVCAR-3 = test system: OVCAR-3
MCF7 = test system: MCF7
NCI-H23 = test system: NCI-H23
UO-31 = test system: UO-31
HT-29 = test system: HT-29
LOX IMVI = test system: LOX IMVI
DU-145 = test system: DU-145
MDA-MB-435 = test system: MDA-MB-435
PC-3 = test system: PC-3
RXF 393 = test system: RXF 393
TK-10 = test system: TK-10
MDA-MB-231 = test system: MDA-MB-231
NCI-H226 = test system: NCI-H226
HCT-116 = test system: HCT-116
RPMI-8226 = test system: RPMI-8226
UACC-257 = test system: UACC-257
CCRF-CEM = test system: CCRF-CEM
KM12 = test system: KM12

Measured: GI50

NC(Cc1ccccc1)C(=O)OCN1C(=O)C2C3C=CC(C2C1=O)C1C(=O)N(COC(=O)C(N)Cc2ccccc2)C(=O)C31 (stereo not drawn)
inactive: SR 24.4 µM | UACC-62 38.8 µM | OVCAR-3 > 100 µM | MCF7 17.5 µM | NCI-H23 66.2 µM | UO-31 > 100 µM | HT-29 18.4 µM | LOX IMVI 22 µM | DU-145 > 100 µM | MDA-MB-435 > 100 µM | PC-3 > 100 µM | RXF 393 > 100 µM | TK-10 > 100 µM | MDA-MB-231 78 µM | NCI-H226 > 100 µM | HCT-116 42.5 µM | RPMI-8226 23.2 µM | UACC-257 75.2 µM | CCRF-CEM 21.7 µM

CN(C)Cc1cc(C(=O)/C=C/c2ccc(Cl)cc2)cc(CN(C)C)c1O
inactive: SR 11.1 µM | OVCAR-3 3.06 µM | MCF7 14.4 µM | NCI-H23 15.7 µM | UO-31 7.4 µM | HT-29 5.6 µM | LOX IMVI 4.43 µM | DU-145 12.1 µM | MDA-MB-435 13.7 µM | PC-3 10.8 µM | RXF 393 10.9 µM | TK-10 18.4 µM | MDA-MB-231 11.4 µM | NCI-H226 22 µM | HCT-116 12.9 µM | KM12 4.17 µM | RPMI-8226 7.89 µM | UACC-257 15.6 µM | CCRF-CEM 14.4 µM

CC(C)=CCC/C(C)=C/CCC1(C)C2COC(=O)C21 (stereo not drawn)
inactive: SR 37 µM | UACC-62 > 100 µM | OVCAR-3 37 µM | MCF7 34.8 µM | NCI-H23 51.3 µM | UO-31 43.3 µM | HT-29 70.8 µM | LOX IMVI 26.7 µM | DU-145 60.5 µM | MDA-MB-435 65.5 µM | PC-3 44.4 µM | RXF 393 > 100 µM | TK-10 > 100 µM | MDA-MB-231 > 100 µM | NCI-H226 > 100 µM | HCT-116 31.9 µM | KM12 34.9 µM | UACC-257 > 100 µM | CCRF-CEM 26.9 µM

CCOC(=O)c1nc2ccc(C(F)(F)F)cc2nc1NCc1cc(OC)c(OC)c(OC)c1
inactive: SR 7.38 µM | UACC-62 53.5 µM | OVCAR-3 55.5 µM | MCF7 66.5 µM | NCI-H23 59.2 µM | UO-31 35.3 µM | HT-29 59.6 µM | LOX IMVI 35.7 µM | DU-145 66.5 µM | MDA-MB-435 35.6 µM | PC-3 41.9 µM | RXF 393 39.9 µM | TK-10 > 100 µM | MDA-MB-231 60 µM | NCI-H226 > 100 µM | HCT-116 30 µM | KM12 32.9 µM | RPMI-8226 17.7 µM | UACC-257 > 100 µM

COc1ccc2c3c1OC1C(=O)C=CC4(CC2)N(C)CCC314 (stereo not drawn)
inactive: SR 7.21 µM | UACC-62 > 10 µM | OVCAR-3 19.4 µM | MCF7 20.2 µM | NCI-H23 14 µM | UO-31 16.3 µM | HT-29 28.6 µM | LOX IMVI 11.4 µM | DU-145 14.3 µM | MDA-MB-435 12.2 µM | PC-3 21.7 µM | RXF 393 25.9 µM | TK-10 27.3 µM | MDA-MB-231 41.2 µM | HCT-116 14 µM | KM12 14.1 µM | RPMI-8226 17 µM | UACC-257 28.6 µM | CCRF-CEM 12.7 µM

Cc1c2ccncc2c(C)c2c1sc1ccccc12
inactive: SR 2.19 µM | UACC-62 5.24 µM | OVCAR-3 14.6 µM | MCF7 1.84 µM | NCI-H23 8.2 µM | HT-29 6.1 µM | LOX IMVI 6.18 µM | DU-145 13.3 µM | MDA-MB-435 15 µM | PC-3 11.1 µM | RXF 393 10 µM | TK-10 16.9 µM | MDA-MB-231 16.5 µM | NCI-H226 8.13 µM | HCT-116 4.49 µM | KM12 12.1 µM | RPMI-8226 6.87 µM | UACC-257 19.3 µM | CCRF-CEM 3.31 µM

CC1=NN(c2nc(N)nc(-c3ccccc3S(N)(=O)=O)n2)C(C)(C)C1
inactive: SR 5.85 µM | OVCAR-3 16.3 µM | MCF7 22.7 µM | NCI-H23 20.1 µM | UO-31 3.92 µM | HT-29 12.1 µM | LOX IMVI 10.3 µM | DU-145 7.38 µM | MDA-MB-435 37.8 µM | PC-3 16.7 µM | RXF 393 14 µM | TK-10 9.51 µM | MDA-MB-231 22.2 µM | NCI-H226 9.2 µM | HCT-116 10.2 µM | KM12 29.8 µM | RPMI-8226 27.2 µM | UACC-257 30.2 µM | CCRF-CEM 9.42 µM

Nc1cc(-c2ccc(Cl)cc2)nn1-c1nc2ccccc2nc1-c1ccccc1
inactive: SR 71.8 µM | UACC-62 > 100 µM | OVCAR-3 65 µM | MCF7 > 100 µM | HT-29 11.9 µM | LOX IMVI > 100 µM | DU-145 > 100 µM | MDA-MB-435 > 100 µM | PC-3 22.2 µM | RXF 393 35 µM | TK-10 77.1 µM | MDA-MB-231 > 100 µM | NCI-H226 > 100 µM | HCT-116 > 100 µM | KM12 > 100 µM | RPMI-8226 37.5 µM | UACC-257 > 100 µM | CCRF-CEM > 100 µM

c1ccc(C2=NC3OC2c2ccccc23)cc1 (stereo not drawn)
inactive: SR > 10 µM | UACC-62 > 10 µM | OVCAR-3 > 10 µM | MCF7 3.15 µM | NCI-H23 > 10 µM | HT-29 > 10 µM | LOX IMVI > 10 µM | DU-145 > 10 µM | MDA-MB-435 > 10 µM | PC-3 > 10 µM | RXF 393 > 10 µM | TK-10 > 10 µM | MDA-MB-231 > 10 µM | NCI-H226 > 10 µM | HCT-116 > 10 µM | KM12 > 10 µM | RPMI-8226 > 10 µM | UACC-257 > 10 µM | CCRF-CEM > 10 µM

O=S(=O)(O)n1ccnc1
inactive: SR > 100 µM | UACC-62 > 100 µM | OVCAR-3 > 100 µM | MCF7 > 100 µM | NCI-H23 > 100 µM | UO-31 > 100 µM | HT-29 > 100 µM | LOX IMVI > 100 µM | DU-145 > 100 µM | MDA-MB-435 > 100 µM | PC-3 > 100 µM | RXF 393 > 100 µM | TK-10 > 100 µM | MDA-MB-231 > 100 µM | NCI-H226 > 100 µM | HCT-116 > 100 µM | KM12 > 100 µM | RPMI-8226 > 100 µM | UACC-257 > 100 µM

COC(=O)CCC(C)[C@H]1CCC2C3C(C[C@H](OC(C)=O)[C@@]21C)[C@@]1(C)CCC2(C[C@H]1C[C@H]3OC(C)=O)OOC1(CCCCCCC1)OO2 (stereo partly drawn)
inactive: SR 2.29 µM | OVCAR-3 2.73 µM | MCF7 6.64 µM | NCI-H23 6.55 µM | UO-31 7.26 µM | HT-29 9.08 µM | LOX IMVI 3.65 µM | DU-145 6.58 µM | MDA-MB-435 18.4 µM | PC-3 3.4 µM | RXF 393 > 100 µM | TK-10 6.53 µM | MDA-MB-231 8.26 µM | NCI-H226 6.79 µM | HCT-116 2.74 µM | KM12 4.88 µM | RPMI-8226 1.67 µM | UACC-257 5.35 µM | CCRF-CEM 4.97 µM

COc1ccc(OC2OC(CO)C(O)C(O)C2O)cc1 (stereo not drawn)
inactive: SR > 100 µM | UACC-62 > 100 µM | OVCAR-3 > 100 µM | MCF7 > 100 µM | NCI-H23 > 100 µM | UO-31 > 100 µM | HT-29 > 100 µM | LOX IMVI > 100 µM | DU-145 > 100 µM | MDA-MB-435 > 100 µM | PC-3 > 100 µM | TK-10 > 100 µM | MDA-MB-231 > 100 µM | NCI-H226 > 100 µM | HCT-116 > 100 µM | KM12 > 100 µM | RPMI-8226 > 100 µM | UACC-257 > 100 µM | CCRF-CEM > 100 µM

CCCCCCCC/C=C(\Br)C(O)C(Br)Br (stereo not drawn)
inactive: SR 40.8 µM | UACC-62 19.3 µM | OVCAR-3 17.4 µM | MCF7 25.5 µM | NCI-H23 22.1 µM | UO-31 19.4 µM | LOX IMVI 19.9 µM | DU-145 38.6 µM | MDA-MB-435 21.5 µM | PC-3 38.1 µM | RXF 393 19.3 µM | TK-10 39.4 µM | MDA-MB-231 36.8 µM | HCT-116 27.2 µM | KM12 19.1 µM | RPMI-8226 42.7 µM | UACC-257 28 µM | CCRF-CEM 16.1 µM

Cn1nnnc1SC(F)(F)c1nc2ccccc2o1
inactive: SR > 100 µM | UACC-62 > 100 µM | OVCAR-3 > 100 µM | MCF7 > 100 µM | NCI-H23 > 100 µM | UO-31 > 100 µM | HT-29 > 100 µM | DU-145 > 100 µM | MDA-MB-435 > 100 µM | PC-3 > 100 µM | RXF 393 > 100 µM | TK-10 > 100 µM | MDA-MB-231 > 100 µM | NCI-H226 > 100 µM | HCT-116 > 100 µM | KM12 35.9 µM | RPMI-8226 > 100 µM | UACC-257 > 100 µM | CCRF-CEM 25.1 µM

C=C1CCCC(C)(C)[C@H]1C/C=C1\CCOC1=O
inactive: SR 12.4 µM | UACC-62 29.4 µM | OVCAR-3 15 µM | MCF7 12.8 µM | NCI-H23 14.2 µM | UO-31 16.1 µM | HT-29 13.9 µM | LOX IMVI 11.5 µM | DU-145 13.2 µM | MDA-MB-435 10.3 µM | PC-3 16.9 µM | TK-10 19.5 µM | MDA-MB-231 17.7 µM | NCI-H226 9.89 µM | HCT-116 12.6 µM | KM12 17.9 µM | RPMI-8226 6.62 µM | UACC-257 12.1 µM | CCRF-CEM 21.6 µM
